Reference: PMC12118597 (Science Advances, 2025)
pIC50, pKi: −log10 of the molar value.

What follows are compounds tested against T1, SARS-CoV-2 NSP3 macrodomain (Mac1) (Severe acute respiratory syndrome coronavirus 2, UniProt P0DTD1) (assay: not given). Conditions: ligand modeling, Mac1 crystal soak.
Type: binding

Row | Compound | Number of isomers bound
1 | Cc1sc2ncnc(Sc3ccccc3C(=O)O)c2c1C [AVI-317] | 1
2 | OCCC(CO)Nc1ncnc2[nH]ccc12 (stereo not shown) [AVI-3734] | 1
3 | OC[C@@H]1C[C@H](F)CN1c1ncnc2[nH]ccc12 [AVI-609] | 1
4 | O=C(Nc1ccsc1C(=O)O)c1ccc2c(c1)OCO2 [AVI-316] | 1

Same assay, conditions: stereoisomer(s)/conformations of the soaked ligand modeled in the Mac1 crystal structure

Row | Compound | Isomers modeled
5 | Cc1c[nH]c2ncnc(NCC3(O)CCC(O)CC3)c12 (stereo not shown) [AVI-4329] | rr,rr
6 | CC(C)(O)C1C2CCCCC2CN1c1ncnc2[nH]ccc12 (stereo not shown) [AVI-4127] | SSR,SRS
7 | CC(C)(O)C1C2CCC2CN1c1ncnc2[nH]ccc12 (stereo not shown) [AVI-4128] | SRR
8 | C[C@@H]1CCN(c2ncnc3[nH]ccc23)[C@H](CO)C1 [AVI-4064] | RS,SR

These compounds were tested against T1, SARS-CoV-2 NSP3 macrodomain (Mac1) (assay: biochemical). Conditions: not given.
Type: binding

Row | Compound | Average % competition [%] | Ligand efficiency (binding enery per heavy atom)
9 | CC1(c2ccc(F)cc2)CN(C(=O)c2cnc(N)nc2C(F)(F)F)C1 [AVI-340] | 20 | 
10 | O=C1CCc2cc(C(=O)N3CC(C(=O)O)CCC34CCCC4)c(F)cc2N1 (stereo not shown) [AVI-338] |  | 0.16
11 | CC(=O)Nc1ccc(NC(=O)CSc2nnnn2C2CCCC2)cc1 [AVI-315] | 0 | 
12 | CC1c2ccsc2CCN1C(=O)Cc1csc(-c2ccccc2)n1 (stereo not shown) [AVI-287] | 0 | 
13 | COc1ccc(-c2nccc(N3CCC(c4ccsc4)CC3)n2)cc1 [AVI-344] | <10 | 
14 | Cc1nn(C)c2sc(C(=O)N3CC(C(=O)O)c4ccccc43)cc12 (stereo not shown) [AVI-327] | 0 | 
15 | Cc1ccc(O)c(C(=O)c2cnn3c(N)nnc3c2)c1 [AVI-310] | 0 | 

Same assay, conditions: SARS CoV-2 macrodomain HTRF assay

Row | Compound | pKi | Ligand efficiency (binding enery per heavy atom)
16 | CC(C)(O)C1C2CCCCC2CN1c1ncnc2[nH]ccc12 (stereo not shown) [AVI-4127] | 3.92 | 0.25
17 | CC(C)(O)C1C2CCC2CN1c1ncnc2[nH]ccc12 (stereo not shown) [AVI-4128] | 4.66 | 0.32
18 | C[C@@H]1CCN(c2ncnc3[nH]ccc23)[C@H](CO)C1 [AVI-4064] | 4.03 | 0.31
19 | OCCC(CO)Nc1ncnc2[nH]ccc12 (stereo not shown) [AVI-3734] | 4.32 | 0.37
20 | CC1(C)CCC(O)(CNc2ncnc3[nH]ccc23)CC1 [AVI-4310] | 4.15 | 0.29
21 | OC1(CNc2ncnc3[nH]ccc23)CCC2(CC1)OCCO2 [AVI-4315] | 3.70 | 0.23
22 | CC1CCCC(O)(CNc2ncnc3[nH]ccc23)C1 (stereo not shown) [AVI-4307] | 4.43 | 0.32
23 | CC(C)(CO)Nc1ncnc2[nH]ccc12 [AVI-5266] | 4.52 | 
24 | OC1(CNc2ncnc3[nH]ccc23)CCC(F)(F)CC1 [AVI-4308] | 3.89 | 0.27

Same assay, conditions: SARS CoV-2 macrodomain HTRF assay, dose-response; read-out: IC50

Row | Compound | pIC50
25 | CC(C)(O)C1C2CCCCC2CN1c1ncnc2[nH]ccc12 (stereo not shown) [AVI-4127] | 3.89
26 | C[C@@H]1CCN(c2ncnc3[nH]ccc23)[C@H](CO)C1 [AVI-4064] | 4.00
27 | CC1(C)CCC(O)(CNc2ncnc3[nH]ccc23)CC1 [AVI-4310] | 4.12
28 | OC1(CNc2ncnc3[nH]ccc23)CCC2(CC1)OCCO2 [AVI-4315] | 3.68
29 | CC1CCCC(O)(CNc2ncnc3[nH]ccc23)C1 (stereo not shown) [AVI-4307] | 4.40
30 | CC(C)(CO)Nc1ncnc2[nH]ccc12 [AVI-5266] | 4.49
31 | OC1(CNc2ncnc3[nH]ccc23)CCC(F)(F)CC1 [AVI-4308] | 3.85

Same assay, conditions: SARS CoV-2 macrodomain HTRF assay, single dose concentration 200 μM; read-out: Average % competition

Row | Compound | inhibition at 200 µM [%]
32 | OC[C@@H]1C[C@H](F)CN1c1ncnc2[nH]ccc12 [AVI-609] | 52
33 | O[C@H]1CNCC[C@@H]1Nc1ncnc2[nH]ccc12 [AVI-615] | < 10

Same assay, conditions: Single dose, concentration 200 μM

Row | Compound | Average % competition [%]
34 | O=C(O)C(F)(F)F.OCC(Nc1ncnc2[nH]ccc12)C(O)C1CCCCC1 (stereo not shown) [AVI-3687] | 33
35 | O=C(O)C(F)(F)F.OCC(Cc1cccc(F)c1)Nc1ncnc2[nH]ccc12 (stereo not shown) [AVI-3706] | 77

Same assay, conditions: compound at 200 μM; mean of three to four technical replicates; read-out: % competition at 200 μM (preliminary HTRF screen)

Row | Compound | inhibition at 200 µM [%]
36 | OC[C@@H]1C[C@H](F)CN1c1ncnc2[nH]ccc12 [AVI-609] | 52
37 | O=C(O)C(F)(F)F.OCC(Nc1ncnc2[nH]ccc12)C(O)C1CCCCC1 (stereo not shown) [AVI-3687] | 33
38 | O[C@H]1CNCC[C@@H]1Nc1ncnc2[nH]ccc12 [AVI-615] | < 10
39 | O=C(O)C(F)(F)F.OCC(Cc1cccc(F)c1)Nc1ncnc2[nH]ccc12 (stereo not shown) [AVI-3706] | 77

Same assay, conditions: dose-response

Row | Compound | pKi
40 | O=C1CCc2cc(C(=O)N3CC(C(=O)O)CCC34CCCC4)c(F)cc2N1 (stereo not shown) [AVI-338] | 3.13

Same assay, conditions: dose-response; read-out: IC50

Row | Compound | pIC50
41 | Cc1ncc(CN(C)C(=O)c2cccc(N)c2F)s1 [AVI-293] | < 3.00
42 | O=C1CCc2cc(C(=O)N3CC(C(=O)O)CCC34CCCC4)c(F)cc2N1 (stereo not shown) [AVI-338] | 3.10
43 | O=C1COc2cc(C(=O)N3CC(C(=O)O)c4ccccc43)ccc2N1 (stereo not shown) [AVI-289] | < 3.00

Same assay, conditions: read-out: IC50

Row | Compound | pIC50
44 | CC(O)C1CCN(c2cc(N3CCC(c4ccccc4)CC3C)ncn2)C1 (stereo not shown) [AVI-6016] | < 3.00

Same assay, conditions: read-out: IC50 (confirmatory HTRF dose-response screen)

Row | Compound | pIC50
45 | CC(C)(O)C1C2CCC2CN1c1ncnc2[nH]ccc12 (stereo not shown) [AVI-4128] | 4.62
46 | OCCC(CO)Nc1ncnc2[nH]ccc12 (stereo not shown) [AVI-3734] | 4.28

Same assay, conditions: single dose concentration 200 μM (TS-FrankenROCS series)

Row | Compound | Average % competition [%]
47 | Cc1ncc(CN(C)C(=O)c2cccc(N)c2F)s1 [AVI-293] | 14
